Experiments:
Experiment in all cases: relative viability (nuclei count vs DMSO), 5 days (fraction); higher = more cells survive
Ponatinib + Bortezomib = compound: Cc1ccc(C(=O)Nc2ccc(CN3CCN(C)CC3)c(C(F)(F)F)c2)cc1C#Cc1cnc2cccnn12 [Ponatinib] + CC(C)C[C@H](NC(=O)[C@H](Cc1ccccc1)NC(=O)c1cnccn1)B(O)O [Bortezomib] (partner 0.002 µM)
Method in brief: (§1)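 Five library-drug doses in √10 steps were combined with a fixed anchor-drug dose, or a single drug was given alone, by pin tool to lung cancer cell lines in 1536-well plates the day after seeding. Nuclei were stained and counted after 5 days. Relative viability is the nuclei count in treated wells over that in vehicle wells, taken as the median of duplicate plates.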

Pazopanib + Crizotinib = compound: Cc1ccc(Nc2nccc(N(C)c3ccc4c(C)n(C)nc4c3)n2)cc1S(N)(=O)=O [Pazopanib] + C[C@@H](Oc1cc(-c2cnn(C3CCNCC3)c2)cnc1N)c1c(Cl)ccc(F)c1Cl [Crizotinib] (partner 1 µM)
Method in brief: as §1

Ponatinib + Olaparib = compound: Cc1ccc(C(=O)Nc2ccc(CN3CCN(C)CC3)c(C(F)(F)F)c2)cc1C#Cc1cnc2cccnn12 [Ponatinib] + O=C(c1cc(Cc2n[nH]c(=O)c3ccccc23)ccc1F)N1CCN(C(=O)C2CC2)CC1 [Olaparib] (partner 8 µM)
Method in brief: as §1

Ponatinib + Luminespib = compound: Cc1ccc(C(=O)Nc2ccc(CN3CCN(C)CC3)c(C(F)(F)F)c2)cc1C#Cc1cnc2cccnn12 [Ponatinib] + CCNC(=O)c1noc(-c2cc(C(C)C)c(O)cc2O)c1-c1ccc(CN2CCOCC2)cc1 [Luminespib] (partner 0.01 µM)
Method in brief: as §1

UMC-11
relative viability (Ponatinib + Bortezomib; first compound 0.002 µM): 0.653
relative viability (Ponatinib + Bortezomib; first compound 0.006325 µM): 0.769
relative viability (Ponatinib + Bortezomib; first compound 0.06325 µM): 0.921
relative viability (Ponatinib + Bortezomib; first compound 0.2 µM): 0.646
relative viability (Pazopanib + Crizotinib; first compound 0.01 µM): 0.625
relative viability (Pazopanib + Crizotinib; first compound 0.03162 µM): 0.716
relative viability (Pazopanib + Crizotinib; first compound 0.1 µM): 0.708
relative viability (Pazopanib + Crizotinib; first compound 0.3162 µM): 0.675
relative viability (Pazopanib + Crizotinib; first compound 1 µM): 0.588
relative viability (Ponatinib + Olaparib; first compound 0.002 µM): 0.405
relative viability (Ponatinib + Olaparib; first compound 0.006325 µM): 1.01
relative viability (Ponatinib + Olaparib; first compound 0.06325 µM): 0.338
relative viability (Ponatinib + Olaparib; first compound 0.2 µM): 0.366
relative viability (Ponatinib + Luminespib; first compound 0.002 µM): 1.07
relative viability (Ponatinib + Luminespib; first compound 0.006325 µM): 1.16
relative viability (Ponatinib + Luminespib; first compound 0.06325 µM): 1.04
relative viability (Ponatinib + Luminespib; first compound 0.2 µM): 0.979
